From article PMC3686795, “CD38 Structure-Based Inhibitor Design Using the N1-Cyclic Inosine 5′-Diphosphate Ribose Template” (PLoS ONE, 2013)
Like-named read-outs stand apart in the source and are kept apart here. Values belong to the molecule of their own block, whether it stands above or below them.

Assays:
[1] = biological target: T1, wild-type CD38 (cADPR hydrolase activity) (Homo sapiens, UniProt P28907, N100D/N164A/N209D/N219D); experiment: Enzymatic assay for cADPR hydrolysis (inhibition of CD38-catalyzed cADPR hydrolysis, fluorimetric cycling assay); assay type: biochemical; settings: for Fold improvement of IC50 over N1-cIDPR (cADPR hydrolysis): relative to N1-cIDPR, IC50 276 µM
T1 construct: Crystal structure of human CD38 extracellular domain; made in house
T1 sequence (P28907 45-300 N100D/N164A/N209D/N219D limits assumed): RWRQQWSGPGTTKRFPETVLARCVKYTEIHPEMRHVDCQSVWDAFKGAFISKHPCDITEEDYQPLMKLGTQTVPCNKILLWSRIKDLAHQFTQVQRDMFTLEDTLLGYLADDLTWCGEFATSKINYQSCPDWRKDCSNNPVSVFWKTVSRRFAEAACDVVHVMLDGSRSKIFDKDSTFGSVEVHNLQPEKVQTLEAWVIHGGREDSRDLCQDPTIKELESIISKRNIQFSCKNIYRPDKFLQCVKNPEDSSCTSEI
Procedure: The reaction was stopped by the addition of 150 mM HCl. The precipitated protein was filtered, and the pH was neutralized with Tris base. After diluting the mixture 20-fold, the concentration of the unhydrolyzed cADPR present in the diluted reaction mixture was assayed by the fluorimetric cycling assay as previously described.

[2] = system: sea urchin egg homogenate; parameters: method as in PMID 11535079; settings: cited from earlier work
[3] = biological target: T2, CD38 NAD+ glycohydrolase activity (Homo sapiens, UniProt P28907, N100D/N164A/N209D/N219D); experiment: Enzymatic assay for NAD+ hydrolase (NADase) activity of CD38; assay type: biochemical; settings: 1 µM NAD+, 0.1 µg/mL CD38, 1 min, 20–24°C, pH 4.5; Figure S1; read-out: IC50, inhibition of NADase activity of CD38
T2 construct: Crystal structure of human CD38 extracellular domain; made in house
T2 sequence (P28907 45-300 N100D/N164A/N209D/N219D limits assumed): T1 sequence (P28907 45-300 N100D/N164A/N209D/N219D limits assumed)
Procedure: The reaction was stopped by addition of 150 mM HCl, filtered and assayed for NAD^+ by the fluorimetric cycling assay as previously described.

CD38 = biological target: T3, CD38 (Homo sapiens, UniProt P28907, N100D/N164A/N209D/N219D); experiment: Incubation with CD38, nucleotide profile by HPLC (stability towards cleavage); assay type: in vitro ADME; settings: HPLC after 18 h; data not shown
T3 construct: Crystal structure of human CD38 extracellular domain; made in house
T3 sequence (P28907 45-300 N100D/N164A/N209D/N219D limits assumed): T1 sequence (P28907 45-300 N100D/N164A/N209D/N219D limits assumed)

Jurkat T-cells = system: Jurkat T-cells; parameters: method as in PMID 15932322; settings: cited from earlier work
[4] = 1 µM cADPR, 2 µg/mL CD38, 10 min, 20–24°C, pH 4.5, read-out: IC50, inhibition of cADPR hydrolysis by CD38
[5] = 1 µM cADPR, 2 µg/mL CD38, pH 4.5, inhibitor tested 0–1 mM, read-out: IC50, inhibition of cADPR hydrolysis by CD38
[6] = extrapolated beyond the tested range 0–1 mM, read-out: IC50, inhibition of cADPR hydrolysis, estimated by projection

SMILES: O=c1c2nc[nH]c2ncn1[C@@H]1O[C@H](COP(=O)(O)O)[C@@H](O)[C@H]1O [N1-IMP, N1-inosine 5′-monophosphate]
IC50 [1, 4]: 14 µM
Fold improvement of IC50 over N1-cIDPR (cADPR hydrolysis) [1]: ~20 fold

SMILES: O=c1c2nc(I)[nH]c2ncn1[C@@H]1O[C@H](COP(=O)(O)O)[C@@H](O)[C@H]1O [8-Iodo N1-IMP, 8-iodo N1-IMP]
IC50 [1, 5]: > 1000 µM
IC50 [1, 6]: ~1240 µM

SMILES: N=c1c2ncn3c2ncn1[C@@H]1C[C@H](COP(=O)(O)OP(=O)(O)OC[C@H]2O[C@@H]3[C@H](O)[C@@H]2O)[C@@H](O)[C@H]1O [cADPcR, cyclic ADP-carbocyclic ribose, reference compound]
Ca2+ release activity [2]: potent Ca^2+ release agent
IC50 [1, 4]: 129 µM

SMILES: Nc1nc2c(=O)n3cnc2n1[C@@H]1O[C@H](COP(=O)(O)OP(=O)(O)OC[C@H]2O[C@@H]3[C@H](O)[C@@H]2O)[C@@H](O)[C@H]1O [8-Amino N1-cIDPR, 8-amino N1-cIDPR]
IC50 [3]: 21 µM
IC50 [1, 4]: 56 µM
Fold improvement of IC50 over N1-cIDPR (cADPR hydrolysis) [1]: over 5 fold

SMILES: O=c1c2ncn3c2ncn1[C@@H]1O[C@H](COP(=O)(O)OP(=O)(O)OC[C@H]2O[C@@H]3[C@H](O)[C@@H]2O)[C@@H](O)[C@H]1O [N1-cIDPR, cyclic inosine 5′-diphosphoribose]
Ca2+ release compared with cADPR (Jurkat T-cells): almost indistinguishable from Ca^2+ release induced by cADPR

Second part, the molecule after the results:

IC50 [1, 4]: 7.6 µM
SMILES: Nc1nc2c(=O)n([C@@H]3O[C@H](COP(=O)(O)O)[C@@H](O)[C@H]3O)cnc2[nH]1 [8-Amino N1-IMP, 8-amino N1-IMP]

IC50 [1, 5]: > 1000 µM
IC50 [1, 6]: ~2000 µM
SMILES: NCCCCNc1nc2c(=O)n3cnc2n1[C@@H]1O[C@H](COP(=O)(O)OP(=O)(O)OC[C@H]2O[C@@H]3[C@H](O)[C@@H]2O)[C@@H](O)[C@H]1O [8-(4-Aminobutane)amino N1-cIDPR, 8-(4-aminobutane)amino N1-cIDPR]

IC50 [1, 4]: 201 µM
SMILES: O=c1c2nc(Br)[nH]c2ncn1[C@@H]1O[C@H](COP(=O)(O)O)[C@@H](O)[C@H]1O [8-Bromo N1-IMP]

Change in nucleotide profile after incubation with CD38 (CD38): no change in the nucleotide profile
SMILES: O=c1c2nc(Br)n3c2ncn1[C@@H]1O[C@H](COP(=O)(O)OP(=O)(O)OC[C@H]2O[C@@H]3[C@H](O)[C@@H]2O)[C@@H](O)[C@H]1O [8-Bromo N1-cIDPR, 8-bromo N1-cIDPR]
